From patent US7872052B2, “Use of heterocyclic compounds as SCCE inhibitors” (Arexis AB, priority 2003, dated 2011)

Molecular target: T1, Recombinant active human SCCE (Homo sapiens, UniProt P49862)
T1 construct: made in house; host or cells: murine C127 cells transfected with a BPV vector (murine MT promoter)
Assay: SCCE Inhibitor Test (chromogenic substrate S-2586, absorbance at 405 nm)
Type: biochemical
Conditions: for IC50: 10 min preincubation, 1 mM S-2586, 60 min, 37° C, pH 7.2; for remaining activity at 10 µM / remaining activity at 1 µM / remaining activity at 5 µM: 1 h; for remaining activity at 1 µM: 1 μM compound; for remaining activity at 5 µM: 5 μM compound
Description: Recombinant active human SCCE was produced essentially as described in WO 95/00651. The cDNA encoding human SCCE was introduced into a BPV vector under the control of the murine MT promoter and expressed in transfected C127 cells. The produced SCCE was purified and activated using immobilized bovine trypsin.
SCCE activity was determined using the chromogenic substrate S-2586 (MeO-Suc-Arg-Pro-Tyr-pNA) (Chromogenix, Mölndal, Sweden) by measurement of the change in absorbance at 405 nm essentially as described in WO 95/00651. Inhibitors were dissolved in DMSO and added to the reaction mixture (10 mM sodium phosphate, pH 7.2, 0.5 M NaCl, 2.5 μg/ml SCCE) at appropriate concentrations followed by incubation for 10 min before the start of the enzymatic reaction by subsequent addition of the substrate S-2586 to a final concentration of 1 mM. The change in absorbance at 405 nm after 60 min was recorded and used as a measure of SCCE activity. The assay temperature was 37° C. […] The IC50 values were used to identify compounds as SCCE inhibitors of the invention.

T1 sequence (P49862 30-253): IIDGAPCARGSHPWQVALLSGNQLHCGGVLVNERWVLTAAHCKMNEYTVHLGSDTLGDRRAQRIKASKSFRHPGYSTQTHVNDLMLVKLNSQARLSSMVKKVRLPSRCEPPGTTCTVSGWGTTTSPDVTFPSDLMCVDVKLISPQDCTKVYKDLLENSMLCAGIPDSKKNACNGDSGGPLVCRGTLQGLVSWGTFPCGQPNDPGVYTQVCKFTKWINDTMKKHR

IC50 [nM]	remaining activity at 10 µM (10 μM compound) [%]	remaining activity at 1 µM [%]	remaining activity at 5 µM [%]	% SCCE activity (10 μM compound) [%]	Compound
2000	27	–	–	–	O=c1oc(-c2ccccc2)nc2ccccc12 [Compound I-1, 2-Phenyl-benzo[d][1,3]oxazin-4-one]
100	–	15	0	–	O=c1oc(-c2ccc([N+](=O)[O-])cc2Cl)nc2cc(Cl)ccc12 [Compound I-2, 7-Chloro-2-(2-chloro-4-nitro-phenyl)-benzo[d][1,3]oxazin-4-one]
250	–	22	5	–	O=c1oc(-c2cccs2)nc2cc(Cl)ccc12 [Compound I-4, 7-Chloro-2-thiophen-2-yl-benzo[d][1,3]oxazin-4-one]
500	9	–	–	–	COc1cc2nc(-c3ccc([N+](=O)[O-])cc3Cl)oc(=O)c2cc1OC [Compound I-5, 2-(2-Chloro-4-nitro-phenyl)-6,7-dimethoxy-benzo[d][1,3]oxazin-4-one]
500	22	–	–	–	O=c1oc(-c2cc([N+](=O)[O-])ccc2Cl)nc2ccccc12 [Compound I-6, 2-(2-Chloro-5-nitro-phenyl)-benzo[d][1,3]oxazin-4-one]
2000	–	–	–	7	CN(C)c1nc2cc(Cl)cc(Cl)c2c(=O)o1 [Compound I-7]
5000	24	–	–	–	O=c1oc(-c2ccncc2)nc2ccccc12 [Compound I-8, 2-Pyridin-4-yl-benzo[d][1,3]oxazin-4-one]
5000	23	–	–	–	O=c1oc(-c2cccs2)nc2ccccc12 [Compound I-9, 2-Thiophen-2-yl-benzo[d][1,3]oxazin-4-one]
5000	32	71	47	–	O=c1oc(-c2ccccc2O)nc2ccccc12 [Compound I-10, 2-(2-Hydroxy-phenyl)-benzo[d][1,3]oxazin-4-one]
700	–	39	8	–	COc1cc2nc(-c3ccccc3F)oc(=O)c2cc1OC [Compound I-11, 2-(2-Fluoro-phenyl)-6,7-dimethoxy-benzo[d][1,3]oxazin-4-one]
2000	–	33	15	–	CCc1ccc(-c2nc3cc(Cl)ccc3c(=O)o2)cc1 [Compound I-12, 7-Chloro-2-(4-ethyl-phenyl)benzo[d][1,3]oxazin-4-one]
2000	–	56	36	–	Cc1cc(-c2nc3cc(Cl)ccc3c(=O)o2)ccc1[N+](=O)[O-] [Compound I-13, 7-Chloro-2-(3-methyl-4-nitro-phenyl)-benzo[d][1,3]oxazin-4-one]
5000	52	–	–	–	COc1cc2nc(-c3ccc(NC(C)=O)cc3)oc(=O)c2cc1OC [Compound I-14, N-[4-(6,7-Dimethoxy-4-oxo-4H-benzo[d][1,3]oxazin-2-yl)-phenyl]-acetamide]
5000	–	52	22	–	CC(=O)Oc1ccc(-c2nc3ccccc3c(=O)o2)cc1 [Compound I-15, Acetic acid 4-(4-oxo-4H-benzo[d][1,3]oxazin-2-yl)-phenyl ester]
170	3	15	–	–	COc1cc2nc(-c3ccccc3Cl)oc(=O)c2cc1OC [Compound I-16, 2-(2-Chloro-phenyl)-6,7-dimethoxy-benzo[d][1,3]oxazin-4-one]
320	–	18	4	–	O=c1nc(-c2cccs2)oc2ccc(Cl)cc12 [Compound I-17, 6-Chloro-2-thiophen-2-yl-benzo[e][1,3]oxazin-4-one]

IC50 [nM]	remaining activity at 10 µM (10 μM compound) [%]	remaining activity at 1 µM [%]	remaining activity at 5 µM [%]	% SCCE activity (10 μM compound) [%]	Compound
600	–	26	7	–	O=c1nc(-c2ccco2)oc2ccc(Cl)cc12 [Compound I-18, 6-Chloro-2-furan-2-yl-benzo[e][1,3]oxazin-4-one]
4000	–	76	44	–	O=c1nc(-c2ccccc2Cl)oc2ccccc12 [Compound I-19, 2-(2-Chlorophenyl)-benzo[e][1,3]oxazin-4-one]
–	–	54	16	–	O=c1nc(-c2cccs2)oc2ccccc12 [Compound I-20, 2-Thiophen-2-yl-benzo[e][1,3]oxazin-4-one]
–	–	47	16	–	O=c1nc(-c2ccco2)oc2ccccc12 [Compound I-21, 2-Furan-2-yl-benzo[e][1,3]oxazin-4-one]
70	–	0	0	–	CCc1cc2c(=O)oc(-c3ccccc3F)nc2s1 [II-1, 6-Ethyl-2-(2-fluoro-phenyl)-thieno[2,3-d][1,3]oxazin-4-one]
50	4	–	–	–	Cc1cc2c(=O)oc(-c3cccc4ccccc34)nc2s1 [II-2, 6-Methyl-2-naphtalen-1-yl-thieno[2,3-d][1,3]oxazin-4-one]
150	–	3	0	–	CCc1cc2c(=O)oc(-c3ccccc3C)nc2s1 [II-3, 6-Ethyl-2-o-tolyl-thieno[2,3-d][1,3]oxazin-4-one]
300	–	15	8	–	CCc1cc2c(=O)oc(-c3ccc(F)cc3)nc2s1 [II-4, 6-Ethyl-2-(4-fluoro-phenyl)-thieno[2,3-d][1,3]oxazin-4-one]
500	1	–	–	–	O=c1oc(-c2ccccc2Cl)nc2ccsc12 [II-5, 2-(2-chloro-phenyl)-4H-thieno[3,2-d][1,3]oxazin-4-one]
1000	9	–	–	–	O=c1oc(-c2ccccc2)nc2ccsc12 [II-6, 2-phenyl-4H-thieno[3,2-d][1,3]oxazin-4-one]
1500	–	50	13	–	Cc1sc2nc(-c3ccco3)oc(=O)c2c1C [II-7, 2-Furan-2-yl-5,6-dimethyl-thieno[2,3-d][1,3]oxazin-4-one]
1000	10	–	–	–	O=c1oc(-c2ccc(F)cc2)nc2ccsc12 [II-8, 2-(4-fluoro-phenyl)-4H-thieno[3,2-d][1,3]oxazin-4-one]
1000	–	58	37	–	CCc1cc2c(=O)oc(-c3ccc(Br)cc3)nc2s1 [II-9, 2-(4-Bromo-phenyl)-6-ethyl-thieno[2,3-d][1,3]oxazin-4-one]
20	–	10	2	–	O=c1oc(-c2ccccc2Cl)nc2sc3c(c12)CCC3 [II-10, 6-(2-Chloro-phenyl)-2,3-dihydro-1H-5-oxa-8-thia-7-aza-cyclopenta[a]indene-4-one]
200	–	8	8	–	O=c1oc(-c2ccco2)nc2sc3c(c12)CCC3 [II-11, 6-Furan-2-yl-2,3-dihydro-1H-5-oxa-8-thia-7-aza-cyclopenta[a]inden-4-one]
200	–	19	16	–	O=c1oc(-c2ccccc2)nc2sc3c(c12)CCC3 [II-12, 6-Phenyl-2,3-dihydro-1H-5-oxa-8-thia-7-aza-cyclopenta[a]inden-4-one]
